Measurements published in the supplement of paper PMC10307832.

Assays:
[1] = compound: COC1=CC=C(C=C1)CN2C=CC3=C2C=C(C=C3)C(=O)NO + COc1cc2c(Oc3ccc(NC(=O)C4(C(=O)Nc5ccc(F)cc5)CC4)cc3F)ccnc2cc1OCCCN1CCOCC1 [Foretinib] (partner 0.25 µM); test: relative viability (nuclei count vs DMSO), 5 days (fraction); higher = more cells survive
Procedure, shortened: (§1)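 Relative viability is defined as nuclei in treated wells over nuclei in vehicle wells. Duplicate plates were run and medians reported. Lung cancer cell lines in 1536-well plates were dosed by pin tool one day after seeding, with one drug or with a fixed anchor-drug dose plus five library-drug doses (not always all listed) in √10 steps, and nuclei were counted after 5 days.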

[2] = compound: C[C@]1(c2nc3c(C(N)=O)cccc3[nH]2)CCCN1 [Veliparib] + Cc1cc(Nc2cc(N3CCN(C)CC3)nc(Sc3ccc(NC(=O)C4CC4)cc3)n2)n[nH]1 [Tozasertib] (partner 0.1 µM); test: as above
Procedure, shortened: as §1

| Cell Line | relative viability ([1]; first compound 0.08 µM) | relative viability ([1]; first compound 0.253 µM) | relative viability ([1]; first compound 0.8 µM) | relative viability ([1]; first compound 2.53 µM) | relative viability ([1]; first compound 8 µM) | relative viability ([2]; first compound 0.02 µM) | relative viability ([2]; first compound 0.06325 µM) | relative viability ([2]; first compound 0.2 µM) | relative viability ([2]; first compound 0.6325 µM) | relative viability ([2]; first compound 2 µM) |
| --- | --- | --- | --- | --- | --- | --- | --- | --- | --- | --- |
| HCC-366 | 0.433 | 0.994 | 0.89 | 0.992 | 0.923 | 0.159 | 0.147 | 0.108 | 0.137 | 0.112 |
| NCI-H2009 | 0.931 | 1.3 | 1.17 | 1.27 | 1.24 | 0.798 | 0.753 | 0.741 | 0.745 | 0.854 |
| NCI-H460 | 0.53 | 1.06 | 0.973 | 0.974 | 1.02 | 0.512 | 0.438 | 0.334 | 0.478 | 0.308 |
| NCI-H2085 | 0.906 | 0.979 | 1.12 | 0.84 | 0.991 | 0.737 | 0.888 | 0.75 | 0.738 | 0.849 |
| NCI-H596 | 0.841 | 0.983 | 0.846 | 0.895 | 0.523 | 0.838 | 0.774 | 0.99 | 0.859 | 0.811 |
| HCC-15 | 0.642 | 1.02 | 1 | 1.03 | 1.01 | 0.361 | 0.356 | 0.464 | 0.362 | 0.354 |
| NCI-H2405 | 1.01 | 1.06 | 1.07 | 1.09 | 1.02 | 0.793 | 0.689 | 0.714 | 0.724 | 0.777 |
| ABC-1 |  | 1.14 | 1.02 | 0.935 | 1.14 |  | 0.196 | 0.137 | 0.175 | 0.17 |
| ChaGo-K-1 |  | 0.932 | 0.898 | 0.802 | 0.869 | 0.206 | 0.217 | 0.219 | 0.199 | 0.24 |
| NCI-H2126 | 1.14 | 1.22 | 1.15 | 1.2 | 1.26 | 0.821 | 0.784 | 0.842 | 0.819 | 0.849 |
| NCI-H838 |  | 1.07 | 1 | 0.995 | 0.982 | 0.344 | 0.28 | 0.285 | 0.256 | 0.25 |
| EPLC-272H | 0.293 |  | 0.653 | 0.704 | 0.662 | 0.273 | 0.227 | 0.224 | 0.2 | 0.249 |
| NCI-H2342 | 0.997 | 0.986 | 0.978 | 0.956 | 1.02 | 0.498 | 0.573 | 0.421 | 0.504 | 0.508 |
| NCI-H1703 |  | 0.374 | 0.385 | 0.368 | 0.307 |  |  |  |  |  |
| NCI-H1975 | 0.931 | 1.14 | 0.934 | 0.968 | 0.926 | 0.932 | 0.729 | 0.775 | 0.699 | 0.723 |
| NCI-H3122 | 0.942 | 1 | 0.913 | 0.993 | 0.947 | 0.439 | 0.428 | 0.453 | 0.383 | 0.395 |
| NCI-H1650 | 0.764 | 1.14 | 1.29 | 1.27 | 0.766 |  | 0.441 | 0.486 | 0.448 | 0.526 |
| PC-14 | 0.701 | 0.917 | 0.991 | 1.04 | 0.996 | 0.638 | 0.584 | 0.562 | 0.526 | 0.674 |
| NCI-H522 |  |  |  |  |  | 0.628 | 0.579 | 0.508 | 0.598 | 0.545 |

| Cell Line | relative viability ([1]; first compound 0.08 µM) | relative viability ([1]; first compound 0.253 µM) | relative viability ([1]; first compound 0.8 µM) | relative viability ([1]; first compound 2.53 µM) | relative viability ([1]; first compound 8 µM) | relative viability ([2]; first compound 0.02 µM) | relative viability ([2]; first compound 0.06325 µM) | relative viability ([2]; first compound 0.2 µM) | relative viability ([2]; first compound 0.6325 µM) | relative viability ([2]; first compound 2 µM) |
| --- | --- | --- | --- | --- | --- | --- | --- | --- | --- | --- |
| NCI-H1563 | 0.762 | 0.897 | 0.888 | 0.928 | 0.892 |  |  |  |  |  |
| COR-L 105 | 0.681 | 1.43 | 0.853 | 1.08 | 0.212 | 0.35 | 0.307 | 0.434 | 0.313 | 0.346 |
| LU99A |  | 0.904 | 0.841 | 0.865 | 0.836 | 0.328 | 0.271 | 0.239 | 0.245 | 0.279 |
| HCC-78 | 0.529 | 0.629 | 0.594 | 0.585 | 0.6 | 0.402 | 0.381 | 0.404 | 0.35 | 0.404 |
| NCI-H358 |  | 0.684 | 0.801 | 0.575 | 0.57 | 0.121 | 0.107 | 0.106 | 0.106 | 0.102 |
| NCI-H1648 |  |  |  |  |  | 0.723 | 0.469 | 0.383 | 0.405 | 0.363 |
| NCI-H1651 | 0.646 | 0.89 | 0.709 | 0.723 | 0.694 | 0.864 | 0.654 | 0.646 | 0.604 | 0.545 |
| SW 900 | 0.746 | 0.822 | 0.908 | 0.828 | 0.719 |  |  | 0.636 | 0.533 | 0.586 |
| LOU-NH91 | 0.899 | 0.941 | 0.915 | 0.908 | 0.861 | 0.647 | 0.684 | 0.729 | 0.584 | 0.746 |
| NCI-H1395 | 0.916 | 0.949 | 0.99 | 1.04 | 0.99 | 0.684 | 0.787 | 0.754 | 0.656 | 0.706 |
| IA-LM | 0.997 | 1.33 | 1.08 | 1.2 | 1.06 |  |  |  |  |  |
| COR-L23 | 0.741 | 0.992 | 0.985 | 0.99 | 0.945 | 0.229 | 0.249 | 0.257 | 0.216 | 0.172 |
| NCI-H650 | 1.04 | 1.01 | 1.04 | 1.02 | 0.936 | 0.809 | 0.683 | 0.773 | 0.686 | 0.799 |
| NCI-H1793 |  | 0.732 | 0.63 | 0.656 | 0.63 | 0.364 | 0.349 | 0.391 | 0.371 | 0.41 |
| A549 | 0.802 | 0.965 | 0.948 | 0.952 | 0.987 |  |  |  |  |  |
| 201T | 1.06 | 1.15 | 1.24 | 1.06 | 0.999 | 0.935 | 0.952 | 0.961 | 0.946 | 0.921 |
| LK-2 |  | 1.66 | 1.4 | 0.949 | 1.03 |  | 0.152 | 0.159 | 0.221 | 0.18 |
| A-427 |  | 1.03 | 1.16 | 1.12 | 1 |  | 0.232 | 0.181 | 0.198 | 0.283 |
| HCC-44 |  |  |  |  |  | 1.04 |  | 1.15 | 0.956 | 0.919 |
